Test results published in US20250129135A1, “Multi-Agonist and Use Thereof” (priority 2021, published 2025).
Starred links: 1 amine or outer side, 2 acyl side, 3 side chain; linkers in the order of their positions; H or OH if unused. Non-standard residues stand in square brackets, D forms with d. Residues, ends and D or L forms follow the SMILES beside them. Groups on a side chain read outwards from the residue. *: point of attachment. C20 diacid = O=C(O)CCCCCCCCCCCCCCCCCCC(=O)*; αMePhe(2-F) = C[C@](N)(Cc1ccccc1F)C(=O)O; γGlu = O=C(O)[C@H](CCC(=O)[*:2])N[*:1]; αMeL = CC(C)C[C@](C)(N)C(=O)O; AEEA = NCCOCCOCC(=O)O; Aib = CC(C)(N)C(=O)O

What was measured:
[1] = biological target: Human GLP-1R (Homo sapiens, UniProt P43220); test: cAMP (HTRF) activity in HEK-293 cells stably overexpressing human GLP-1 receptor; type: cell-based; design: expressed in transfected cells; host or cells: HEK-293; conditions: for Human GLP-1R Rel. A (Relative Activity): EC50 of human GLP-1 (7-37) / EC50 of compound; for EC50: stable transfected cell cAMP activity, at least 3 independent tests
Sequence of Human GLP-1R (P43220 24-463): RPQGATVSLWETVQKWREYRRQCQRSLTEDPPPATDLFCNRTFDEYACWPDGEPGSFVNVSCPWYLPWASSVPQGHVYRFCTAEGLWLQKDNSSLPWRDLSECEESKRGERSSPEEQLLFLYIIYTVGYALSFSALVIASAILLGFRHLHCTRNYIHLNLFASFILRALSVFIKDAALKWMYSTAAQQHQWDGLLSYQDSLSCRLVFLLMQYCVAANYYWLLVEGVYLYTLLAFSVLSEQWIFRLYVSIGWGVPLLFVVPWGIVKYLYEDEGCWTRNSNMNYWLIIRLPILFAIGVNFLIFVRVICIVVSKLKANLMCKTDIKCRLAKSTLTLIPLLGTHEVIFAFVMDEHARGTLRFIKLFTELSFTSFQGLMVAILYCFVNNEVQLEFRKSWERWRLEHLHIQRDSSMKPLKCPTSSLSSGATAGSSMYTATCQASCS
Procedure, shortened: (§1)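 Cells in HBSS are exposed to compound for 60 min at room temperature, followed by 60 min with detection reagent. EC50 (nM) is taken from concentration-response curves.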

[2] = system: human primary liver cells; type: cell-based; conditions: for Rel. A (Relative Activity) on human primary liver cells: relative to GCG
Procedure, shortened: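 cAMP readout after 60 min with detection reagent, following 60 min room-temperature compound incubation. Cells were primary human liver cells thawed at 37° C and resuspended in HBSS.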

[3] = Rat pharmacokinetics (PK) study; type: in vivo; conditions: sc, male SD rats, subcutaneous 30 nmol/kg, plasma
Method: 7˜9 weeks old male SD rats (220-250 g, 3 rats/group) were subjected to subcutaneous injection of 30 nmol/kg compound. After administration, blood was collected through the jugular vein at time points 0.25, 2, 4, 8, 12, 16, 24, 48, 96, 120, and 144 hours. The blood was processed to obtain plasma samples and analyzed using LC-MS/MS. The blood concentration time curve was analyzed using Phoenix WinNonlin version 6.3 software (non compartment model), and PK parameters and half-life were calculated.

[4] = biological target: T1, Human GIP R (Homo sapiens, UniProt P48546); test: cAMP (HTRF) activity in CHO cells stably overexpressing GIP receptor; type: cell-based; conditions: for Human GIP R Rel. A (Relative Activity): EC50 of human GIP / EC50 of compound; for EC50: stable transfected cell cAMP activity, at least 3 independent tests
T1 construct: expressed in transfected cells; host or cells: CHO
T1 sequence (P48546 22-466): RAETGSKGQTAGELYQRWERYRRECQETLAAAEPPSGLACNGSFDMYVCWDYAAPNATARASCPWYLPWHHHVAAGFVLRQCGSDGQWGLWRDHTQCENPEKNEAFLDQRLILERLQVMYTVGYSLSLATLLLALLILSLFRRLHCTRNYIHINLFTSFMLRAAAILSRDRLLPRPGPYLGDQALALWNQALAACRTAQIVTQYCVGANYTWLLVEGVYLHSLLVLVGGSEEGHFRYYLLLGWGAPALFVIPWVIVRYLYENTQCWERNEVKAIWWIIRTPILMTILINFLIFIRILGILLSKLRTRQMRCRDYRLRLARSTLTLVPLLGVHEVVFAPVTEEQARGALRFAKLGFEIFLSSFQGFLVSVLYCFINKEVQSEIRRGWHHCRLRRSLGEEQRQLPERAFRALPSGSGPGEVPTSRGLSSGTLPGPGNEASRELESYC
Procedure, shortened: as §1

[5] = system: C57 BL/6J DIO mice; test: In vivo pharmacodynamics in high-fat diet induced obesity (DIO) mice; design: species or system mouse; conditions: Mean±SEM; for LDL-C / TC (total cholesterol) / TG (plasma triglycerides) / Blood sugar (fasting blood glucose) / Insulin (blood): Day 15
Procedure, shortened: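 DIO mice (60 kcal% fat diet) dosed subcutaneously in 1×PBS, 5 ml/kg, every three days for 15 days. Daily body weight and food intake as % change from baseline; day 15 fasting glucose, plasma TC, LDL-C, TG, insulin and liver TG. Mean±SEM, one-way ANOVA with Dunnett's versus vehicle.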

SMILES: CC[C@H](C)[C@H](NC(=O)[C@H](Cc1ccccc1)NC(=O)[C@H](C)NC(=O)C(C)(C)NC(=O)[C@H](CCC(N)=O)NC(=O)[C@H](C)NC(=O)[C@H](CCCCNC(=O)COCCOCCNC(=O)COCCOCCNC(=O)CC[C@H](NC(=O)CCCCCCCCCCCCCCCCCCC(=O)O)C(=O)O)NC(=O)[C@H](CCCCN)NC(=O)[C@H](CC(=O)O)NC(=O)[C@H](CC(C)C)NC(=O)[C@H](Cc1ccccc1)NC(=O)[C@@H](NC(=O)[C@H](CO)NC(=O)[C@H](Cc1ccc(O)cc1)NC(=O)[C@H](CC(=O)O)NC(=O)[C@H](CO)NC(=O)[C@@H](NC(=O)[C@](C)(Cc1ccccc1F)NC(=O)[C@@H](NC(=O)CNC(=O)[C@H](CCC(N)=O)NC(=O)C(C)(C)NC(=O)[C@@H](N)Cc1ccc(O)cc1)[C@@H](C)O)[C@@H](C)O)[C@@H](C)CC)C(=O)N[C@@H](CCC(=O)O)C(=O)N[C@@H](Cc1ccc(O)cc1)C(=O)N[C@@H](CC(C)C)C(=O)N[C@@H](CC(C)C)C(=O)N[C@@H](CCC(=O)O)C(=O)NC(C)(C)C(=O)N[C@@H](Cc1c[nH]cn1)C(=O)N1CCC[C@H]1C(=O)N[C@@H](CO)C(=O)N[C@@H](CO)C(=O)NCC(=O)N[C@@H](C)C(=O)N1CCC[C@H]1C(=O)N1CCC[C@H]1C(=O)N1CCC[C@H]1C(=O)N[C@@H](CO)C(N)=O [Compound 18]
- Human GLP-1R Rel. A (Relative Activity) [1]: 366.67%
- EC50 [1]: 0.012 nM
- EC50 [2]: 0.622 nM
- Rel. A (Relative Activity) on human primary liver cells [2]: 625.56%
- AUC(0-t) [3]: 3.01 µM·h
- Cmax [3]: 62.8 nM
- Tmax [3]: 16 h
- half-life [3]: 936 min
- Human GIP R Rel. A (Relative Activity) [4]: 861.90%
- EC50 [4]: 0.021 nM
- Weight change ([5]; Table 6-1, 3 nmol/kg s.c. Q3D for 15 days): −22.2 ± 0.89%
- Weight change ([5]; Table 6-1, 10 nmol/kg s.c. Q3D for 15 days): −30.6 ± 1.26%
- Weight change ([5]; Table 6-1, 30 nmol/kg s.c. Q3D for 15 days): −45.0 ± 1.52%
- LDL-C ([5]; Table 7-1, 3 nmol/kg): 0.60 ± 0.043 mM
- TC (total cholesterol) ([5]; Table 7-1, 3 nmol/kg): 3.77 ± 0.234 mM
- TG (plasma triglycerides) ([5]; Table 7-1, 3 nmol/kg): 0.90 ± 0.027 mM
- LDL-C ([5]; Table 7-1, 30 nmol/kg): 0.35 ± 0.036 mM
- TC (total cholesterol) ([5]; Table 7-1, 30 nmol/kg): 2.32 ± 0.161 mM
- TG (plasma triglycerides) ([5]; Table 7-1, 30 nmol/kg): 0.61 ± 0.041 mM
- Blood sugar (fasting blood glucose) ([5]; Table 8-1, 3 nmol/kg): 98.5 ± 9.17 mg/dL
- Insulin (blood) ([5]; Table 8-1, 3 nmol/kg): 21.2 ± 3.73 mIU/L

SMILES: CC[C@H](C)[C@H](NC(=O)[C@H](Cc1ccccc1)NC(=O)[C@H](C)NC(=O)C(C)(C)NC(=O)[C@H](CCC(N)=O)NC(=O)[C@H](C)NC(=O)[C@H](CCCCNC(=O)COCCOCCNC(=O)COCCOCCNC(=O)CC[C@H](NC(=O)CCCCCCCCCCCCCCCCCCC(=O)O)C(=O)O)NC(=O)[C@H](CCCCN)NC(=O)[C@H](CC(=O)O)NC(=O)[C@H](CC(C)C)NC(=O)[C@](C)(CC(C)C)NC(=O)[C@@H](NC(=O)[C@H](CO)NC(=O)[C@H](Cc1ccc(O)cc1)NC(=O)[C@H](CC(=O)O)NC(=O)[C@H](CO)NC(=O)[C@@H](NC(=O)[C@](C)(Cc1ccccc1F)NC(=O)[C@@H](NC(=O)CNC(=O)[C@H](CCC(N)=O)NC(=O)C(C)(C)NC(=O)[C@@H](N)Cc1ccc(O)cc1)[C@@H](C)O)[C@@H](C)O)[C@@H](C)CC)C(=O)N[C@@H](CCC(=O)O)C(=O)N[C@@H](Cc1ccccc1)C(=O)N[C@@H](CC(C)C)C(=O)N[C@@H](CC(C)C)C(=O)N[C@@H](CCC(=O)O)C(=O)N[C@H](C(=O)NCC(=O)N1CCC[C@H]1C(=O)N[C@@H](CO)C(=O)N[C@@H](CO)C(=O)NC(C)(C)C(=O)N[C@@H](Cc1c[nH]cn1)C(=O)N1CCC[C@H]1C(=O)N1CCC[C@H]1C(=O)N1CCC[C@H]1C(=O)N[C@@H](CO)C(N)=O)[C@@H](C)O [Compound 38] (H-Y[Aib]QGT[αMePhe(2-F)]TSDYSI[αMeL]LDKK([AEEA-AEEA-γGlu-C20 diacid])AQ[Aib]AFIEFLLETGPSS[Aib]HPPPS-NH2; N-terminus assumed)
- Human GLP-1R Rel. A (Relative Activity) [1]: 115.79%
- EC50 [1]: 0.038 nM
- EC50 [2]: 0.899 nM
- Rel. A (Relative Activity) on human primary liver cells [2]: 432.81%
- AUC(0-t) [3]: 3.1 µM·h
- Cmax [3]: 78.1 nM
- Tmax [3]: 16 h
- half-life [3]: 942 min
- Human GIP R Rel. A (Relative Activity) [4]: 1392.31%
- EC50 [4]: 0.013 nM
- Weight change ([5]; Table 6-2, 3 nmol/kg s.c. Q3D for 15 days): −19.0 ± 1.30%
- Weight change ([5]; Table 6-2, 10 nmol/kg s.c. Q3D for 15 days): −25.7 ± 2.26%
- LDL-C ([5]; Table 7-2, 3 nmol/kg): 0.39 ± 0.025 mM
- TC (total cholesterol) ([5]; Table 7-2, 3 nmol/kg): 3.49 ± 0.151 mM
- TG (plasma triglycerides) ([5]; Table 7-2, 3 nmol/kg): 0.74 ± 0.019 mM
- LDL-C ([5]; Table 7-2, 10 nmol/kg): 0.35 ± 0.053 mM
- TC (total cholesterol) ([5]; Table 7-2, 10 nmol/kg): 3.12 ± 0.186 mM
- TG (plasma triglycerides) ([5]; Table 7-2, 10 nmol/kg): 0.63 ± 0.051 mM
- Blood sugar (fasting blood glucose) ([5]; Table 8-2, 3 nmol/kg): 151.7 ± 8.46 mg/dL
- Insulin (blood) ([5]; Table 8-2, 3 nmol/kg): 24.9 ± 5.43 mIU/L
